Experimental data published in patent publication US20030176483A1, “Topical synergistic microbicide” (priority 2002, published 2003).

How the values were obtained:
HSV-2 (strain G) = test: Inactivation of HSV-2 by pre-mixing with drug, plaque reduction assay; type: cell-based, herpes simplex virus; conditions: concentration 0.005%, pre-mixing for 1 h
Experimental: (§1) HSV strains G (HSV-2) and F (HSV-1) were used in the experiments. A HSV susceptible cell line, Vero cells (African green monkey kidney cell), was used in the virus yield reduction assays. The culture medium for Vero cells was 5% minimum essential medium (MEM; GIBCO/BRL) supplemented with 5% fetal bovine serum, 100 U/ml penicillin and 100 μg/ml streptomycin).
(§2) Confluent cells were washed with PBS and subsequently infected with HSV for 1 h at 37° C. After viral inoculum was removed, the infected cells were washed with PBS and overlaid with 0.5% methylcellulose in culture medium. Cells were incubated at 37° C. for 2 days for HSV-2 infection and 3 days for HSV-1. When plaque size was adequate, cells were fixed with 10% formalin for […]. Monolayers were subsequently stained with 0.5% crystal violet for 10 min, and dye was removed by washing with tap water.
(§3) All data were generated from duplicate or triplicate experiments. Effects of compounds at varying concentrations were expressed as % of control (the mean plaque counts in drug treated wells/the mean plaque counts in control wells).
(§4) HSV G and F strains were diluted to 200 pfu/ml with 5% MEM, respectively. […] Equal volumes of diluted virus and drugs were mixed and incubated at 37° C. water-bath for 1 h. One ml of the mixture was then used to infect confluent Vero cells in 6-well plates at 37° C. for 1 h. […]

[1] = tested on: HSV-2 thymidine kinase mutant Delta 333; test: Inactivation of drug-resistant HSV-2 TK mutant, plaque reduction assay; type: cell-based, herpes simplex virus; conditions: 37° C. for 1 h, concentration not given
Vero cells [2] = test: Cell death seen in the HSV inactivation plaque assays; type: cell-based, African green monkey; conditions: concentration 0.005%
Experimental: HSV G and F strains were diluted to 200 pfu/ml with 5% MEM, respectively. […] Equal volumes of diluted virus and drugs were mixed and incubated at 37° C. water-bath for 1 h. One ml of the mixture was then used to infect confluent Vero cells in 6-well plates at 37° C. for 1 h. After infection, viral inoculum was removed and the cells washed with PBS. The cells were subsequently overlaid with 1.5 ml of 0.5% methylcellullose (diluted from 1% stock with 2×culture medium) for plaque assay.

HSV-1 (strain F) = test: Inactivation of HSV-1 by pre-mixing with drug, plaque reduction assay; type: cell-based, herpes simplex virus; conditions: concentration 0.005%, pre-mixing for 1 h
Experimental: as §1, §2, §3, §4

Vero cells [3] = test: Cytotoxicity, neutral red uptake assay; type: cell-based, African green monkey; conditions: after 2 days' incubation, data not shown
Experimental: Culture medium was removed from confluent Vero cells in 24-well plates. The cells were then washed once with PBS. […] Cells were incubated at 37° C. for 1 h, 6 h, 2 and 3 days. At each time point, the medium was removed and cells washed with PBS. 500 μl of 0.01% neutral red (in PBS) was added to each well, and the samples were incubated at 37° C. for 30 min. The dye was then removed and the cells washed×2 with 1 ml PBS per well. The dye was extracted by addition of 500 μl of 50% ethanol/1% glacial acetic acid in PBS to each well and incubated at room temperature for 15 min with gentle shaking at 120-150 rpm. 200 μl extracted dye from each well was put into 96-well plate and the absorbance at 550 nm was read on an ELISA reader.

`CCCCCCCCCCCCOS(=O)(=O)[O-].[Na+]` [SDS] was tested, and the “inactivation of HSV-2” value (HSV-2 (strain G)) was “effective”, the “inactivation of delta 333” value [1] was “capable of inactivating” and the cell death (Vero cells [2]) was 50%. For the same molecule, the “inactivation of HSV-1” value (HSV-1 (strain F)) was “effective” and the “CC50 (cytotoxic concentration giving 50% of cell death)” value (Vero cells [3]) was “approximately 0.005%”.
